Source: PMC9005681, “Use of AD Informer Set compounds to explore validity of novel targets in Alzheimer's disease pathology” (Alzheimer's & Dementia : Translational Research & Clinical …, 2022)
Several values for one entry are separate records, joined by “and”; a condition that tells them apart may be missing. Equal values may be shown once.

Tests used:
Assay in all cases: PDSP GPCR panel primary binding assays at 10 μM
[1] = biological target: T1, cloned human or rodent CNS receptors, channels, and transporters (PDSP panel) (Homo sapiens, UniProt P28335); conditions: Receptor 5-HT2C, primary assay, 10 μM; for Mean %: mean of Inhibition 1-4
T1 construct: expressed in transfected cells
T1 sequence (P28335 33-458): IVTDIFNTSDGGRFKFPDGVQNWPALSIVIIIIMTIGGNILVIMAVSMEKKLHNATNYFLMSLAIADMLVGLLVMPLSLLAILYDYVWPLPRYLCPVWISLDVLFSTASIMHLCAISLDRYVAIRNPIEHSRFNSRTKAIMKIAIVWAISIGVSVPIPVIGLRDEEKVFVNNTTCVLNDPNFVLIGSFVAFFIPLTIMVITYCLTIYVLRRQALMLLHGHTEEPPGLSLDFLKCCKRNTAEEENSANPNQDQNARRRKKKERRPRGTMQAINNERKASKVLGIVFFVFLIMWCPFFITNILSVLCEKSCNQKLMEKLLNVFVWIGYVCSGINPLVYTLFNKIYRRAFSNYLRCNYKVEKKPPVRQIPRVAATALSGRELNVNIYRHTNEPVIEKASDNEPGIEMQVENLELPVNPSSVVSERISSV
Method in brief: (§1)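 Each compound is first screened once at 10 μM, in quadruplicate, for radioligand displacement. Where mean displacement passes 50%, an 11-point dose-response in triplicate follows at that target, except at H3, PBR and GABAA.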

[2] = biological target: T2, cloned human or rodent CNS receptors, channels, and transporters (PDSP panel) (Homo sapiens, UniProt P28222); conditions: Receptor 5-HT1B, primary assay, 10 μM; for Mean %: mean of Inhibition 1-4
T2 construct: expressed in transfected cells
T2 sequence (P28222 whole entry): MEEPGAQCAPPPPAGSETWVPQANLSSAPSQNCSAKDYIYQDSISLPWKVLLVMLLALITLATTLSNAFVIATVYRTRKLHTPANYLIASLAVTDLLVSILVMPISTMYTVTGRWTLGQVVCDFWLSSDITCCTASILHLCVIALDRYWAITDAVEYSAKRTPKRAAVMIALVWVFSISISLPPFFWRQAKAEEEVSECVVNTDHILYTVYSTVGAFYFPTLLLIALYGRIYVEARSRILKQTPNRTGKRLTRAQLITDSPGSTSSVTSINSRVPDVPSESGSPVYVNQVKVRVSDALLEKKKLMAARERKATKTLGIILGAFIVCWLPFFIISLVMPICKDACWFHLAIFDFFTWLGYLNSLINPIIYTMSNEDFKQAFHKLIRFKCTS
Method in brief: as §1

[3] = biological target: T3, cloned human or rodent CNS receptors, channels, and transporters (PDSP panel) (Homo sapiens, UniProt P34969); conditions: Receptor 5-HT7A, primary assay, 10 μM; for Mean %: mean of Inhibition 1-4
T3 construct: expressed in transfected cells
T3 sequence (P34969 whole entry): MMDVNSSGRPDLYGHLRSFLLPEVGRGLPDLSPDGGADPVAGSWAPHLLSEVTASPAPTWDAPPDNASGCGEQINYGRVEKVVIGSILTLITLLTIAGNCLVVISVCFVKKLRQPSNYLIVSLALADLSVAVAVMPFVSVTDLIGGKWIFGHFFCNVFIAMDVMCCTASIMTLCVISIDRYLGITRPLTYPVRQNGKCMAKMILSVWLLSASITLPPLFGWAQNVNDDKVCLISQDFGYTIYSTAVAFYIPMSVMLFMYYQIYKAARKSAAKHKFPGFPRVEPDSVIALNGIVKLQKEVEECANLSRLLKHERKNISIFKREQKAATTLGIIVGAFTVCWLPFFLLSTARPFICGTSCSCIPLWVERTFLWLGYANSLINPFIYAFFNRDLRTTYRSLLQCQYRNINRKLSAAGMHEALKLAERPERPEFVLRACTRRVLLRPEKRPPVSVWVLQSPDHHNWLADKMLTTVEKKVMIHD
Method in brief: as §1

[4] = biological target: T4, cloned human or rodent CNS receptors, channels, and transporters (PDSP panel) (Homo sapiens, UniProt P18089); conditions: Receptor Alpha2B, primary assay, 10 μM; for Mean %: mean of Inhibition 1-4
T4 construct: expressed in transfected cells
T4 sequence (P18089 1-450): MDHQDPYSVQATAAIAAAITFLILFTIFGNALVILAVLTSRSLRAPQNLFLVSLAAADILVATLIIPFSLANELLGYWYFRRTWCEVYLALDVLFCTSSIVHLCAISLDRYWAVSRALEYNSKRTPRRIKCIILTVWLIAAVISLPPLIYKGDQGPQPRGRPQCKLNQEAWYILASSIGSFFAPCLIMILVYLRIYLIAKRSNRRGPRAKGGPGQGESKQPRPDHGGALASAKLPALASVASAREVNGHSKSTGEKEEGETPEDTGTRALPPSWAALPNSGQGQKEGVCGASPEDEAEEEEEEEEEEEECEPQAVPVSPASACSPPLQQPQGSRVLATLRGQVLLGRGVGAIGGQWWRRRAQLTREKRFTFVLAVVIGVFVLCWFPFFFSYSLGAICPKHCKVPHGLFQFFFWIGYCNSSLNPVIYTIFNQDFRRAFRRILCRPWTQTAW
Method in brief: as §1

[5] = biological target: T5, cloned human or rodent CNS receptors, channels, and transporters (PDSP panel) (Rattus norvegicus, UniProt P16257); conditions: Receptor PBR, primary assay, 10 μM
T5 construct: expressed in transfected cells
Method in brief: as §1

[6] = biological target: T6, cloned human or rodent CNS receptors, channels, and transporters (PDSP panel) (Homo sapiens, UniProt Q01959); conditions: primary assay
T6 construct: expressed in transfected cells
T6 sequence (Q01959 whole entry): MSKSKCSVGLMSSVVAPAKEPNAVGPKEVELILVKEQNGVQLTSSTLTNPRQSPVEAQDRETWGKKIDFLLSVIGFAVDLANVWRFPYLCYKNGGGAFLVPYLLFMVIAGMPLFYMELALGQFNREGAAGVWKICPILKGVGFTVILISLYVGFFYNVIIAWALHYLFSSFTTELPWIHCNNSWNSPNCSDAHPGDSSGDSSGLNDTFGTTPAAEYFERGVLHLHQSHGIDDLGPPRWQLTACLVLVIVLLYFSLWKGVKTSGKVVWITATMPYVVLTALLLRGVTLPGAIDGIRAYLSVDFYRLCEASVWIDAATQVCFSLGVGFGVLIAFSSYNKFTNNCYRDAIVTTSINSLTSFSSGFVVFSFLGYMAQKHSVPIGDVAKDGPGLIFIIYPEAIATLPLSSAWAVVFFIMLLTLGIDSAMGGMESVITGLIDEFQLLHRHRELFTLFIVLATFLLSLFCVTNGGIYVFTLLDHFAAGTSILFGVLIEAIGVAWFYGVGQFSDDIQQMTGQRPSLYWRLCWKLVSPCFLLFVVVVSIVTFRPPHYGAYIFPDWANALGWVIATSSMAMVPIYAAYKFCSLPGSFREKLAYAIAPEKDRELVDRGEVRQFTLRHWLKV
Method in brief: as §1

[7] = biological target: T7, cloned human or rodent CNS receptors, channels, and transporters (PDSP panel) (Homo sapiens, UniProt P14416); conditions: Receptor D2, primary assay, 10 μM; for Mean %: mean of Inhibition 1-4
T7 construct: expressed in transfected cells
T7 sequence (P14416 whole entry): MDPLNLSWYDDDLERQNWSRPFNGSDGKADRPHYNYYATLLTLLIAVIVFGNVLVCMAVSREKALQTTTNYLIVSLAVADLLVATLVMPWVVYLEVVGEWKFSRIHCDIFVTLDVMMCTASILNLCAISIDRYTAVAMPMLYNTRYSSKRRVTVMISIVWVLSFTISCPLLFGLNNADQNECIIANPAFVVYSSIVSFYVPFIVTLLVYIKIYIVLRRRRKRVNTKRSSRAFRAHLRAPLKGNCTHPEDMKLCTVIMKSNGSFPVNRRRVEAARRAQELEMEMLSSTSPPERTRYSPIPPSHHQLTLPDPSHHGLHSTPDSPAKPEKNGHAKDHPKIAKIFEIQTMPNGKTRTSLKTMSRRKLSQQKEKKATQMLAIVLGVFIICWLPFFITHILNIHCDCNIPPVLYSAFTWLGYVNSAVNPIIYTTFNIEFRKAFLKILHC
Method in brief: as §1

[8] = biological target: T8, cloned human or rodent CNS receptors, channels, and transporters (PDSP panel) (Homo sapiens, UniProt P28221); conditions: Receptor 5-HT1D, primary assay, 10 μM; for Mean %: mean of Inhibition 1-4
T8 construct: expressed in transfected cells
T8 sequence (P28221 whole entry): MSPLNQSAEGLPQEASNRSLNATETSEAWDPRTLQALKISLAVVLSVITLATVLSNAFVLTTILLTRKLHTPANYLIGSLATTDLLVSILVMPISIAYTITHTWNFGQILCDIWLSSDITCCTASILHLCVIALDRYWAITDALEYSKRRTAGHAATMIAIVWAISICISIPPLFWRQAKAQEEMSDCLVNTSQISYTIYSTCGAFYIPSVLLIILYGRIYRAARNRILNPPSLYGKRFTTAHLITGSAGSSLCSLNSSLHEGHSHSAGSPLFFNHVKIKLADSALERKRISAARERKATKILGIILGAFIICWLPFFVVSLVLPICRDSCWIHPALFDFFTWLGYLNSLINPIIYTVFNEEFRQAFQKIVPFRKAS
Method in brief: as §1

[9] = biological target: T9, cloned human or rodent CNS receptors, channels, and transporters (PDSP panel) (Homo sapiens, UniProt P31645); conditions: Receptor SERT, primary assay, 10 μM; for Mean %: mean of Inhibition 1-4
T9 construct: expressed in transfected cells
T9 sequence (P31645 whole entry): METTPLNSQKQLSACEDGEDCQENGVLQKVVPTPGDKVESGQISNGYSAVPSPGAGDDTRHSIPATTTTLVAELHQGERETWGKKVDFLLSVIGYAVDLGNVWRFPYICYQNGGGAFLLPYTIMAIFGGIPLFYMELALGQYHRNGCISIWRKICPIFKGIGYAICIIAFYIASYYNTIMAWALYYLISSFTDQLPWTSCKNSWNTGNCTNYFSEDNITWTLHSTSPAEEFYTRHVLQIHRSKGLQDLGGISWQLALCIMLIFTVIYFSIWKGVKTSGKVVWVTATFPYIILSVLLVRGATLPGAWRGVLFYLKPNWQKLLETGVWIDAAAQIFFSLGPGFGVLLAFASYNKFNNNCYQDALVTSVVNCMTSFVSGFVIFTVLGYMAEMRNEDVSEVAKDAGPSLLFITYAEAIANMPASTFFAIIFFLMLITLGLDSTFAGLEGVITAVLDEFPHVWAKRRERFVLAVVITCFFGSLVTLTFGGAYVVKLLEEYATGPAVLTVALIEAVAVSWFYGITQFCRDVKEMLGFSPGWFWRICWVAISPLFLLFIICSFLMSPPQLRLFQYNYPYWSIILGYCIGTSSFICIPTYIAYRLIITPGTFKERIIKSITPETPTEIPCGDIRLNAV
Method in brief: as §1

[10] = biological target: T10, cloned human or rodent CNS receptors, channels, and transporters (PDSP panel) (Homo sapiens, UniProt P35462); conditions: primary assay
T10 construct: expressed in transfected cells
T10 sequence (P35462 whole entry): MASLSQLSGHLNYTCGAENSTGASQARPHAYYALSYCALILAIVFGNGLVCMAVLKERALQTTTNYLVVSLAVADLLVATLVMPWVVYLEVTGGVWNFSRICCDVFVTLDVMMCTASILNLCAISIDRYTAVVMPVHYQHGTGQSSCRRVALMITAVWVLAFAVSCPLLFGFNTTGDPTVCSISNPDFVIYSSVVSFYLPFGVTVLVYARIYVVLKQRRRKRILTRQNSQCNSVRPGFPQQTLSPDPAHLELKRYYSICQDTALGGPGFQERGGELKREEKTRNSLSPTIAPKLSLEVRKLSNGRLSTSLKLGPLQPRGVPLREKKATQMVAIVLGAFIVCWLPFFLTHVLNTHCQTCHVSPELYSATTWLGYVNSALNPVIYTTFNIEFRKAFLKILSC
Method in brief: as §1

[11] = biological target: T11, cloned human or rodent CNS receptors, channels, and transporters (PDSP panel) (Homo sapiens, UniProt P28566); conditions: Receptor 5-HT1E, primary assay, 10 μM; for Mean %: mean of Inhibition 1-4
T11 construct: expressed in transfected cells
T11 sequence (P28566 whole entry): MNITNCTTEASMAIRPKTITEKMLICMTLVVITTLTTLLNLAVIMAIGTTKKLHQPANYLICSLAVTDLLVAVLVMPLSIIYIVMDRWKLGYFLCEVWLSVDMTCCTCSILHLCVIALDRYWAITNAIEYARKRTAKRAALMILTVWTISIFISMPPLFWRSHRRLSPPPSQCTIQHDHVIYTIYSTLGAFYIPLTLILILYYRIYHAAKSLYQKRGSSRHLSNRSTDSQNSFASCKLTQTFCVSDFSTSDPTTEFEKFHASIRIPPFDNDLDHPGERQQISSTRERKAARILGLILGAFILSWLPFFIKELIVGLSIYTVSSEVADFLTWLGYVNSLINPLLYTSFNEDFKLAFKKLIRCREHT
Method in brief: as §1

[12] = biological target: T12, cloned human or rodent CNS receptors, channels, and transporters (PDSP panel) (Homo sapiens, UniProt P35367); conditions: Receptor H1, primary assay, 10 μM; for Mean %: mean of Inhibition 1-4
T12 construct: expressed in transfected cells
T12 sequence (P35367 whole entry): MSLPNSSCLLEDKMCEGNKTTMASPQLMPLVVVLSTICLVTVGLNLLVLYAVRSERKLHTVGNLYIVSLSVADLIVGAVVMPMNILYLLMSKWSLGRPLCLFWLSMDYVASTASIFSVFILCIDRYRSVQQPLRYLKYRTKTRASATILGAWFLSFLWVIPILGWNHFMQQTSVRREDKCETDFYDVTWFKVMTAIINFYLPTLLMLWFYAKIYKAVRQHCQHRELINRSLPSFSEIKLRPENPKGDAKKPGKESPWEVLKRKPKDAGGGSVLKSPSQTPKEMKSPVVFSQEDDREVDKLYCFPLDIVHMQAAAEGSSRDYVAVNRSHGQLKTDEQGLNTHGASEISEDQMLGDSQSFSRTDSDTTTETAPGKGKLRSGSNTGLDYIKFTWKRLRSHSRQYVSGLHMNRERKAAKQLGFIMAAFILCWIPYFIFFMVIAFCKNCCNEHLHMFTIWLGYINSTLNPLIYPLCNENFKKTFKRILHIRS
Method in brief: as §1

[13] = Receptor DAT, 10 μM, mean of Inhibition 1-4
[14] = Receptor D3, 10 μM, mean of Inhibition 1-4

SMILES: CCCCNc1ncc2c(-c3ccc(CN4CCN(C)CC4)cc3)cn([C@H]3CC[C@H](O)CC3)c2n1 [UNC2025C, UNC2025]
- Inhibition 1 [1]: 29.45%
- Inhibition 2 [1]: 46.13%
- Inhibition 3 [1]: 31.41%
- Inhibition 4 [1]: 26.99%
- Mean % [1]: 33.5%
- Inhibition 1 [2]: 31.06%
- Inhibition 2 [2]: 11.01%
- Inhibition 3 [2]: 10.42%
- Inhibition 4 [2]: 12.97%
- Mean % [2]: 16.37%
- Inhibition 1 [3]: 13.62%
- Inhibition 2 [3]: -19.4%
- Inhibition 3 [3]: -17.29%
- Inhibition 4 [3]: -17.42%
- Mean % [3]: -10.12%
- Inhibition 1 [4]: 27.09%
- Inhibition 2 [4]: 28.85%
- Inhibition 3 [4]: -0.55%
- Inhibition 4 [4]: 53.34%
- Mean % [4]: 27.18%
- Inhibition 4 [5]: 12.81% and 23.25%
- Inhibition 1 ([6]; Receptor DAT, 10 μM): 56.29%
- Inhibition 2 ([6]; Receptor DAT, 10 μM): 47.54%
- Inhibition 3 ([6]; Receptor DAT, 10 μM): 58.45%
- Inhibition 4 ([6]; Receptor DAT, 10 μM): 64.82%
- Mean % [6, 13]: 56.78%
- Inhibition 1 [7]: 11.9%
- Inhibition 2 [7]: -4.63%
- Inhibition 3 [7]: 2.76%
- Inhibition 4 [7]: -1.81%
- Mean % [7]: 2.06%
- Inhibition 1 [8]: 51.95%
- Inhibition 2 [8]: 44.87%
- Inhibition 3 [8]: 26.55%
- Inhibition 4 [8]: 48.2%
- Mean % [8]: 42.89%
- Inhibition 1 [9]: 82.19% and 71%
- Inhibition 2 [9]: 70.62% and 68.78%
- Inhibition 3 [9]: 68.77% and 67.79%
- Inhibition 4 [9]: 72.64% and 73.98%
- Mean % [9]: 73.56% and 70.39%
- Inhibition 1 ([10]; Receptor D3, 10 μM): 18.68%
- Inhibition 2 ([10]; Receptor D3, 10 μM): 25.04%
- Inhibition 3 ([10]; Receptor D3, 10 μM): 10.39%
- Inhibition 4 ([10]; Receptor D3, 10 μM): 7.11%
- Mean % [10, 14]: 15.31%
- Inhibition 1 [11]: 4.71%
- Inhibition 2 [11]: -8.74%
- Inhibition 3 [11]: 0.13%
- Inhibition 4 [11]: -9.18%
- Mean % [11]: -3.27%
- Inhibition 1 [12]: 34.93%
- Inhibition 2 [12]: 33.32%
- Inhibition 3 [12]: 29.49%
- Inhibition 4 [12]: 24.93%
- Mean % [12]: 30.67%

SMILES: c1cn2cc(-c3ccc4cn[nH]c4c3)nc(Nc3ccc(N4CCOCC4)cc3)c2n1 [UNC10302678A, Entospletinib (GS-9973)]
- Inhibition 1 [1]: -15.71%
- Inhibition 2 [1]: 5.4%
- Inhibition 3 [1]: -17.18%
- Inhibition 4 [1]: -19.14%
- Mean % [1]: -11.66%
- Inhibition 1 [2]: 21.82%
- Inhibition 2 [2]: -6.09%
- Inhibition 3 [2]: 2.36%
- Inhibition 4 [2]: -8.65%
- Mean % [2]: 2.36%
- Inhibition 1 [3]: 7.05%
- Inhibition 2 [3]: 11.23%
- Inhibition 3 [3]: 9.37%
- Inhibition 4 [3]: 35.72%
- Mean % [3]: 15.84%
- Inhibition 1 [4]: 1.15%
- Inhibition 2 [4]: 1.83%
- Inhibition 3 [4]: -12.73%
- Inhibition 4 [4]: -4.05%
- Mean % [4]: -3.45%
- Inhibition 1 [5]: 4.64% and -2.11%
- Inhibition 4 [5]: 21.43% and 15.83%
- Mean % ([5]; mean of Inhibition 1-4): 13.23% and 8.44%
- Inhibition 1 ([6]; Receptor DAT, 10 μM): 27.87%
- Inhibition 2 ([6]; Receptor DAT, 10 μM): 18.37%
- Inhibition 3 ([6]; Receptor DAT, 10 μM): 25.5%
- Inhibition 4 ([6]; Receptor DAT, 10 μM): 31.55%
- Mean % [6, 13]: 25.82%
- Inhibition 1 [7]: 15.89%
- Inhibition 2 [7]: 4.51%
- Inhibition 3 [7]: -1.13%
- Inhibition 4 [7]: -7.35%
- Mean % [7]: 2.98%
- Inhibition 1 [8]: 30.71%
- Inhibition 2 [8]: 10.31%
- Inhibition 3 [8]: -25.09%
- Inhibition 4 [8]: 3.23%
- Mean % [8]: 4.79%
- Inhibition 1 [9]: 60.12%
- Inhibition 2 [9]: 23.39% and 14.88%
- Inhibition 3 [9]: 22.83% and 32.36%
- Inhibition 4 [9]: 31.59% and 27.97%
- Mean % [9]: 34.48% and 22.48%
- Inhibition 1 ([10]; Receptor D3, 10 μM): -22.2%
- Inhibition 2 ([10]; Receptor D3, 10 μM): -12.17%
- Inhibition 3 ([10]; Receptor D3, 10 μM): 0%
- Inhibition 4 ([10]; Receptor D3, 10 μM): -11.01%
- Mean % [10, 14]: -11.35%
- Inhibition 1 [11]: -2.53%
- Inhibition 2 [11]: -10.95%
- Inhibition 3 [11]: -16.42%
- Inhibition 4 [11]: -0.46%
- Mean % [11]: -7.59%

SMILES: O=c1oc2ccccc2cc1-c1cn2cc(Cc3ccc(F)cc3)sc2n1 [UNC10302680A, iMDK]
- Inhibition 1 [1]: 16.2%
- Inhibition 2 [1]: -2.94%
- Inhibition 3 [1]: -21.1%
- Inhibition 4 [1]: -2.94%
- Mean % [1]: -2.7%
- Inhibition 1 [2]: 28.3%
- Inhibition 2 [2]: -13.17%
- Inhibition 3 [2]: 0.98%
- Inhibition 4 [2]: -13.17%
- Mean % [2]: 0.74%
- Inhibition 1 [3]: 13.87%
- Inhibition 2 [3]: 2.87%
- Inhibition 3 [3]: -0.54%
- Inhibition 4 [3]: 21.31%
- Mean % [3]: 9.38%
- Inhibition 1 [4]: 0.83%
- Inhibition 2 [4]: 1.88%
- Inhibition 3 [4]: -7.31%
- Inhibition 4 [4]: 7.87%
- Mean % [4]: 0.82%
- Mean % ([6]; DAT, mean inhibition): 24.58%
- Inhibition 1 ([6]; DAT, replicate 1): 19.55%
- Inhibition 2 ([6]; DAT, replicate 2): 22.26%
- Inhibition 3 ([6]; DAT, replicate 3): 29.6%
- Inhibition 4 ([6]; DAT, replicate 4): 26.9%
- Inhibition 1 [7]: 11.41%
- Inhibition 2 [7]: -7.84%
- Inhibition 3 [7]: -2.59%
- Inhibition 4 [7]: 7.52%
- Mean % [7]: 2.13%
- Inhibition 1 [8]: -3.85%
- Inhibition 2 [8]: -18.84%
- Inhibition 3 [8]: 15.72%
- Inhibition 4 [8]: -8.43%
- Mean % [8]: -3.85%
- Inhibition 1 [9]: -12.44% and -8.39%
- Inhibition 4 [9]: -3% and 3.01%
- Mean % [9]: -8.37% and -12.73%
- Mean % ([10]; D3, mean inhibition): -15.93%
- Inhibition 1 ([10]; D3, replicate 1): -10.82%
- Inhibition 2 ([10]; D3, replicate 2): -16.8%
- Inhibition 3 ([10]; D3, replicate 3): -16.41%
- Inhibition 4 ([10]; D3, replicate 4): -19.69%
- Inhibition 1 [11]: 3.08%
- Inhibition 2 [11]: -14.65%
- Inhibition 3 [11]: -14.65%
- Inhibition 4 [11]: -17.01%
- Mean % [11]: -10.81%
- Inhibition 1 [12]: 99.74%
- Inhibition 2 [12]: 88.41%
- Inhibition 3 [12]: 71.44%
- Inhibition 4 [12]: 51.8%
- Mean % [12]: 77.85%
